The conditions of series [1]: cited from earlier work.
Series [2] can be described thus: Kinetic solubility of neratinib maleate ASD powders, pH 4.0 phthalic acid buffer. In kind it is physicochemical. Particulars: pH 4.0 phthalic acid buffer solution, 37 °C, pH 4, aqueous buffer, thermodynamic from solid; crystalline.

Where two headings read alike, the source gives them in different places. Some results are limits rather than exact numbers.

With `CCOc1cc2ncc(C#N)c(Nc3ccc(OCc4ccccn4)c(Cl)c3)c2cc1NC(=O)/C=C/CN(C)C.O=C(O)/C=C\C(=O)O` [Neratinib maleate, (E)-N-(4-((3-chloro-4-(pyridin-2-ylmethoxy)phenyl)amino)-3-cyano-7-ethoxyquinolin-6-yl)-4-(dimethylamino)but-2-enamide maleate], the solubility in series [1] (pH 1.2) is 32900 µg/mL; in series [1] (pH approximately 5.0) it was not above 80 µg/mL; in series [2] it was less than 300 µg/mL. In addition, the “solubility according to the product label” value in series [1] (pH 1.2) is recorded as “sparingly soluble”; in series [1] (pH 5.0), “insoluble”.

(Values after patent US20240335390A9, “PHARMACEUTICAL COMPOSITIONS OF AMORPHOUS SOLID DISPERSIONS AND METHODS OF PREPARATION THEREOF” (Shenzhen Pharmacin Co., Ltd., priority 2020, published 2024).)
